# Measurements: ChEMBL document CHEMBL1201861, “Genomics of Drug Sensitity in Cancer screening data, Wellcome Trust Sanger Institute”
# pIC50: −log10 of the molar value.
# Experiments:
# Experiment in all cases: cells
# KNS-81-FD = assay type: functional, cell-based; settings: Homo sapiens;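 note: growth inhibition of KNS-81-FD cells, read out with a cell viability assay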
# Description: SANGER: Inhibition of human KNS-81-FD cell growth in a cell viability assay.
# SK-N-DZ = assay type: functional, cell-based; settings: Homo sapiens;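 note: growth inhibition of the cancer cell line, read out through a viability assay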
# Description: SANGER: Inhibition of human SK-N-DZ cell growth in a cell viability assay.
# EW-13 = assay type: functional, cell-based; settings: Homo sapiens;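 note: growth inhibition of EW-13 cells, read out with a cell viability assay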
# Description: SANGER: Inhibition of human EW-13 cell growth in a cell viability assay.
# JVM-3 = assay type: functional, cell-based; settings: Homo sapiens;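 note: growth inhibition of human JVM-3 cells, read out with a cell viability assay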
# Description: SANGER: Inhibition of human JVM-3 cell growth in a cell viability assay.
# NCI-H1838 = assay type: functional, cell-based; settings: Homo sapiens;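 note: growth inhibition of NCI-H1838 cells, determined with a cell viability readout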
# Description: SANGER: Inhibition of human NCI-H1838 cell growth in a cell viability assay.
# SK-MEL-1 = assay type: functional, cell-based; settings: Homo sapiens;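 note: growth inhibition of human SK-MEL-1 cells, read out by a cell viability assay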
# Description: SANGER: Inhibition of human SK-MEL-1 cell growth in a cell viability assay.
# LB1047-RCC = assay type: functional, cell-based; settings: Homo sapiens;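 note: inhibition of cell growth, determined with a cell viability assay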
# Description: SANGER: Inhibition of human LB1047-RCC cell growth in a cell viability assay.
# MDA-MB-134-VI = assay type: functional, cell-based; settings: Homo sapiens
# Description: SANGER: Inhibition of human MDA-MB-134-VI cell growth in a cell viability assay.
# HOP-62 = assay type: functional, cell-based; settings: Homo sapiens;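 note: cell growth inhibition determined with a viability assay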
# Description: SANGER: Inhibition of human HOP-62 cell growth in a cell viability assay.
# NCI-H1395 = assay type: functional, cell-based; settings: Homo sapiens;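 note: cell viability assay read-out quantifying reduced proliferation of human NCI-H1395 cells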
# Description: SANGER: Inhibition of human NCI-H1395 cell growth in a cell viability assay.
# NCI-H1563 = assay type: functional, cell-based; settings: Homo sapiens;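 note: growth inhibition of human NCI-H1563 cells, read out with a cell viability assay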
# Description: SANGER: Inhibition of human NCI-H1563 cell growth in a cell viability assay.
# TGBC24TKB = assay type: functional, cell-based; settings: Homo sapiens;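 note: growth inhibition of human TGBC24TKB cells, read out with a cell viability assay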
# Description: SANGER: Inhibition of human TGBC24TKB cell growth in a cell viability assay.
# JVM-2 = assay type: functional, cell-based; settings: Homo sapiens;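 note: growth inhibition of JVM-2 cells determined by a cell viability assay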
# Description: SANGER: Inhibition of human JVM-2 cell growth in a cell viability assay.
# NCI-H1693 = assay type: functional, cell-based; settings: Homo sapiens;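 note: growth inhibition of the human cell line, read out with a cell viability assay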
# Description: SANGER: Inhibition of human NCI-H1693 cell growth in a cell viability assay.
# ES6 = assay type: functional, cell-based; settings: Homo sapiens;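 note: growth inhibition of human ES6 cells, read out with a cell viability assay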
# Description: SANGER: Inhibition of human ES6 cell growth in a cell viability assay.
# OMC-1 = assay type: functional, cell-based; settings: Homo sapiens;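 note: growth inhibition of the OMC-1 cell line, measured by a cell viability assay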
# Description: SANGER: Inhibition of human OMC-1 cell growth in a cell viability assay.
# SCH = assay type: functional, cell-based; settings: Homo sapiens;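 note: growth inhibition of human SCH cells, read out in a cell viability assay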
# Description: SANGER: Inhibition of human SCH cell growth in a cell viability assay.
# ES4 = assay type: functional, cell-based; settings: Homo sapiens;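 note: growth inhibition of human ES4 cells, read out by a cell viability assay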
# Description: SANGER: Inhibition of human ES4 cell growth in a cell viability assay.
# MC-CAR = assay type: functional, cell-based; settings: Homo sapiens;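 note: growth inhibition of the human MC-CAR cell line, read out by a cell viability assay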
# Description: SANGER: Inhibition of human MC-CAR cell growth in a cell viability assay.
# KM-H2 = assay type: functional, cell-based; settings: Homo sapiens;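 note: growth inhibition of KM-H2 cells, read out by a cell viability assay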
# Description: SANGER: Inhibition of human KM-H2 cell growth in a cell viability assay.
# KARPAS-45 = assay type: functional, cell-based; settings: Homo sapiens;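 note: inhibition of cell line growth, read out through a viability assay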
# Description: SANGER: Inhibition of human KARPAS-45 cell growth in a cell viability assay.
# TE-8 = assay type: functional, cell-based; settings: Homo sapiens;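 note: growth inhibition of TE-8 cells, measured with a cell viability readout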
# Description: SANGER: Inhibition of human TE-8 cell growth in a cell viability assay.
# NB69 = assay type: functional, cell-based; settings: Homo sapiens;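 note: growth inhibition of NB69 cells, determined by a cell viability assay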
# Description: SANGER: Inhibition of human NB69 cell growth in a cell viability assay.
# HAL-01 = assay type: functional, cell-based; settings: Homo sapiens;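 note: growth inhibition of human HAL-01 cells, read out with a cell viability assay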
# Description: SANGER: Inhibition of human HAL-01 cell growth in a cell viability assay.
# ATN-1 = assay type: functional, cell-based; settings: Homo sapiens;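 note: growth inhibition of human ATN-1 cells, read out with a cell viability assay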
# Description: SANGER: Inhibition of human ATN-1 cell growth in a cell viability assay.
# NCI-H2196 = assay type: functional, cell-based; settings: Homo sapiens;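 note: cell viability assay used as the readout of growth inhibition in NCI-H2196 cells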
# Description: SANGER: Inhibition of human NCI-H2196 cell growth in a cell viability assay.
# TGBC1TKB = assay type: functional, cell-based; settings: Homo sapiens;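 note: growth inhibition of TGBC1TKB cells, read out by a cell viability assay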
# Description: SANGER: Inhibition of human TGBC1TKB cell growth in a cell viability assay.
# RPMI-8866 = assay type: functional, cell-based; settings: Homo sapiens
# Description: SANGER: Inhibition of human RPMI-8866 cell growth in a cell viability assay.
# MHH-PREB-1 = assay type: functional, cell-based; settings: Homo sapiens;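 note: cell viability assay measuring inhibition of proliferation of human MHH-PREB-1 cells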
# Description: SANGER: Inhibition of human MHH-PREB-1 cell growth in a cell viability assay.
# CAL-12T = assay type: functional, cell-based, Homo sapiens; settings: Homo sapiens, CAL-12T;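 note: growth inhibition of human CAL-12T cells, read out with a cell viability assay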
# Description: SANGER: Inhibition of human CAL-12T cell growth in a cell viability assay.
# SK-NEP-1 = assay type: functional, cell-based; settings: Homo sapiens;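 note: growth inhibition of human SK-NEP-1 cells, read out by a cell viability assay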
# Description: SANGER: Inhibition of human SK-NEP-1 cell growth in a cell viability assay.
# SK-LMS-1 = assay type: functional, cell-based; settings: Homo sapiens;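 note: growth inhibition of human SK-LMS-1 cells, read out with a cell viability assay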
# Description: SANGER: Inhibition of human SK-LMS-1 cell growth in a cell viability assay.
# BB65-RCC = assay type: functional, cell-based; settings: Homo sapiens;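 note: growth inhibition of the cell line, measured with a cell viability assay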
# Description: SANGER: Inhibition of human BB65-RCC cell growth in a cell viability assay.
# KARPAS-299 = assay type: functional, cell-based; settings: Homo sapiens
# Description: SANGER: Inhibition of human KARPAS-299 cell growth in a cell viability assay.
# NCI-H1650 = assay type: functional, cell-based; settings: Homo sapiens;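 note: growth inhibition of human NCI-H1650 cells measured by a cell viability assay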
# Description: SANGER: Inhibition of human NCI-H1650 cell growth in a cell viability assay.
# EKVX = assay type: functional, cell-based; settings: Homo sapiens;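 note: growth inhibition of human EKVX cells, read out with a cell viability assay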
# Description: SANGER: Inhibition of human EKVX cell growth in a cell viability assay.
# DJM-1 = assay type: functional, cell-based; settings: Homo sapiens;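 note: growth inhibition of human DJM-1 cells, read out by a cell viability assay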
# Description: SANGER: Inhibition of human DJM-1 cell growth in a cell viability assay.
# HOS = assay type: functional, cell-based; settings: Homo sapiens;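 note: growth inhibition of human HOS cells, read out with a cell viability assay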
# Description: SANGER: Inhibition of human HOS cell growth in a cell viability assay.
# ES5 = assay type: functional, cell-based; settings: Homo sapiens;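 note: growth inhibition of human ES5 cells, read out by a cell viability assay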
# Description: SANGER: Inhibition of human ES5 cell growth in a cell viability assay.
# HDLM-2 = assay type: functional, cell-based; settings: Homo sapiens;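 note: cell viability assay measuring suppression of HDLM-2 proliferation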
# Description: SANGER: Inhibition of human HDLM-2 cell growth in a cell viability assay.
# A498 = assay type: functional, cell-based; settings: Homo sapiens;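 note: growth inhibition of human A498 cells, read out with a cell viability assay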
# Description: SANGER: Inhibition of human A498 cell growth in a cell viability assay.
# 697 = assay type: functional, cell-based; settings: Homo sapiens
# Description: SANGER: Inhibition of human 697 cell growth in a cell viability assay.
# SF-539 = assay type: functional, cell-based; settings: Homo sapiens;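 note: Read-out is a cell viability assay, with IC50 reflecting inhibition of cell growth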
# Description: SANGER: Inhibition of human SF539 cell growth in a cell viability assay.
# Ramos-2G6-4C10 = assay type: functional, cell-based; settings: Homo sapiens;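 note: growth inhibition of the cell line, measured by a cell viability read-out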
# Description: SANGER: Inhibition of human Ramos-2G6-4C10 cell growth in a cell viability assay.
# NCI-H1581 = assay type: functional, cell-based; settings: Homo sapiens;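 note: cell growth inhibition read out by a viability assay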
# Description: SANGER: Inhibition of human NCI-H1581 cell growth in a cell viability assay.
# MMAC-SF = assay type: functional, cell-based; settings: Homo sapiens;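 note: growth inhibition of human MMAC-SF cells, read out with a cell viability assay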
# Description: SANGER: Inhibition of human MMAC-SF cell growth in a cell viability assay.
# LB2518-MEL = assay type: functional, cell-based; settings: Homo sapiens;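 note: growth inhibition of human LB2518-MEL cells, measured with a cell viability assay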
# Description: SANGER: Inhibition of human LB2518-MEL cell growth in a cell viability assay.
# Becker = assay type: functional, cell-based; settings: Homo sapiens;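 note: growth inhibition of Becker cells, read out with a cell viability assay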
# Description: SANGER: Inhibition of human Becker cell growth in a cell viability assay.
# MOLT-16 = assay type: functional, cell-based; settings: Homo sapiens;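 note: growth inhibition of human MOLT-16 cells, read out with a cell viability assay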
# Description: SANGER: Inhibition of human MOLT-16 cell growth in a cell viability assay.
# HCC2218 = assay type: functional, cell-based; settings: Homo sapiens;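 note: cell viability assay read-out, with IC50 given as the concentration that inhibits growth of the cell line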
# Description: SANGER: Inhibition of human HCC2218 cell growth in a cell viability assay.
# A4-Fuk = assay type: functional, cell-based; settings: Homo sapiens;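 note: growth inhibition of A4-Fuk cells, read out by a cell viability assay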
# Description: SANGER: Inhibition of human A4-Fuk cell growth in a cell viability assay.
# SCC-3 = assay type: functional, cell-based; settings: Homo sapiens;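 note: cell viability assay measuring inhibition of SCC-3 cell growth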
# Description: SANGER: Inhibition of human SCC-3 cell growth in a cell viability assay.
# KG-1 = assay type: functional, cell-based; settings: Homo sapiens;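 note: growth inhibition of KG-1 cells, read out by a cell viability assay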
# Description: SANGER: Inhibition of human KG-1 cell growth in a cell viability assay.
# RCC10RGB = assay type: functional, cell-based; settings: Homo sapiens
# Description: SANGER: Inhibition of human RCC10RGB cell growth in a cell viability assay.
# SW-620 = assay type: functional, cell-based; settings: Homo sapiens
# Description: SANGER: Inhibition of human SW620 cell growth in a cell viability assay.
# D-502MG = assay type: functional, cell-based; settings: Homo sapiens
# Description: SANGER: Inhibition of human D-502MG cell growth in a cell viability assay.
# RPMI-8226 = assay type: functional, cell-based; settings: Homo sapiens
# Description: SANGER: Inhibition of human RPMI-8226 cell growth in a cell viability assay.
# HCC1187 = assay type: functional, cell-based; settings: Homo sapiens
# Description: SANGER: Inhibition of human HCC1187 cell growth in a cell viability assay.
# MeWo = assay type: functional, cell-based; settings: Homo sapiens
# Description: SANGER: Inhibition of human Mewo cell growth in a cell viability assay.
# NB13 = assay type: functional, cell-based; settings: Homo sapiens
# Description: SANGER: Inhibition of human NB13 cell growth in a cell viability assay.
# SK-UT-1 = assay type: functional, cell-based; settings: Homo sapiens
# Description: SANGER: Inhibition of human SK-UT-1 cell growth in a cell viability assay.
# GI-1 = assay type: functional, cell-based; settings: Homo sapiens
# Description: SANGER: Inhibition of human GI-1 cell growth in a cell viability assay.
# NCI-H1304 = assay type: functional, cell-based; settings: Homo sapiens
# Description: SANGER: Inhibition of human NCI-H1304 cell growth in a cell viability assay.
# LC-1F = assay type: functional, cell-based; settings: Homo sapiens
# Description: SANGER: Inhibition of human LC-1F cell growth in a cell viability assay.
# BV-173 = assay type: functional, cell-based; settings: Homo sapiens
# Description: SANGER: Inhibition of human BV-173 cell growth in a cell viability assay.
smiles,measurement,setting,value
N#C/C(=C1/Nc2ccccc2S1)c1ccnc(NCCc2cccnc2)n1,pIC50,KNS-81-FD,< 5.10
same,pIC50,SK-N-DZ,< 5.10
same,pIC50,EW-13,< 5.10
same,pIC50,JVM-3,< 5.10
same,pIC50,NCI-H1838,< 5.10
same,pIC50,SK-MEL-1,< 5.10
same,pIC50,LB1047-RCC,5.78
same,pIC50,MDA-MB-134-VI,< 5.10
same,pIC50,HOP-62,< 5.10
same,pIC50,NCI-H1395,< 5.10
same,pIC50,NCI-H1563,< 5.10
same,pIC50,TGBC24TKB,< 5.10
same,pIC50,JVM-2,< 5.10
same,pIC50,NCI-H1693,< 5.10
same,pIC50,ES6,5.33
same,pIC50,OMC-1,< 5.10
same,pIC50,SCH,< 5.10
same,pIC50,ES4,< 5.10
same,pIC50,MC-CAR,< 5.10
same,pIC50,KM-H2,< 5.10
same,pIC50,KARPAS-45,5.20
same,pIC50,TE-8,5.54
same,pIC50,NB69,< 5.10
same,pIC50,HAL-01,< 5.10
same,pIC50,ATN-1,< 5.10
same,pIC50,NCI-H2196,< 5.10
same,pIC50,TGBC1TKB,< 5.10
same,pIC50,RPMI-8866,< 5.10
same,pIC50,MHH-PREB-1,< 5.10
same,pIC50,CAL-12T,5.89
same,pIC50,SK-NEP-1,< 5.10
same,pIC50,SK-LMS-1,5.13
same,pIC50,BB65-RCC,5.17
same,pIC50,KARPAS-299,< 5.10
same,pIC50,NCI-H1650,< 5.10
same,pIC50,EKVX,< 5.10
same,pIC50,DJM-1,< 5.10
same,pIC50,HOS,< 5.10
same,pIC50,ES5,5.18
same,pIC50,HDLM-2,< 5.10
same,pIC50,A498,< 5.10
same,pIC50,697,< 5.10
same,pIC50,SF-539,< 5.10
same,pIC50,Ramos-2G6-4C10,< 5.10
same,pIC50,NCI-H1581,< 5.10
same,pIC50,MMAC-SF,< 5.10
same,pIC50,LB2518-MEL,< 5.10
same,pIC50,Becker,5.36
same,pIC50,MOLT-16,5.86
same,pIC50,HCC2218,< 5.10
same,pIC50,A4-Fuk,< 5.10
same,pIC50,SCC-3,< 5.10
same,pIC50,KG-1,< 5.10
same,pIC50,RCC10RGB,< 5.10
same,pIC50,SW-620,< 5.10
same,pIC50,D-502MG,< 5.10
same,pIC50,RPMI-8226,< 5.10
same,pIC50,HCC1187,5.74
same,pIC50,MeWo,< 5.10
same,pIC50,NB13,< 5.10
same,pIC50,SK-UT-1,5.12
same,pIC50,GI-1,5.43
same,pIC50,NCI-H1304,< 5.10
same,pIC50,LC-1F,< 5.10
same,pIC50,BV-173,< 5.10
O=c1[nH]c2ccccc2n1C1CCN(Cc2ccc(-c3nc4cc5[nH]cnc5cc4nc3-c3ccccc3)cc2)CC1,pIC50,KNS-81-FD,< 5.59
same,pIC50,SK-N-DZ,< 5.59
same,pIC50,EW-13,< 5.59
same,pIC50,JVM-3,< 5.59
same,pIC50,NCI-H1838,< 5.59
same,pIC50,SK-MEL-1,< 5.59
same,pIC50,LB1047-RCC,< 5.59
same,pIC50,MDA-MB-134-VI,< 5.59
same,pIC50,HOP-62,< 5.59
same,pIC50,NCI-H1395,< 5.59
same,pIC50,NCI-H1563,6.27
same,pIC50,TGBC24TKB,< 5.59
same,pIC50,JVM-2,< 5.59
same,pIC50,NCI-H1693,< 5.59
same,pIC50,ES6,< 5.59
same,pIC50,OMC-1,< 5.59
same,pIC50,SCH,< 5.59
same,pIC50,ES4,< 5.59
same,pIC50,MC-CAR,< 5.59
same,pIC50,KM-H2,< 5.59
same,pIC50,KARPAS-45,< 5.59
same,pIC50,TE-8,< 5.59
same,pIC50,NB69,< 5.59
same,pIC50,HAL-01,< 5.59
same,pIC50,ATN-1,< 5.59
same,pIC50,NCI-H2196,< 5.59
same,pIC50,TGBC1TKB,< 5.59
same,pIC50,RPMI-8866,< 5.59
same,pIC50,MHH-PREB-1,< 5.59
same,pIC50,CAL-12T,< 5.59
same,pIC50,SK-NEP-1,< 5.59
same,pIC50,SK-LMS-1,< 5.59
same,pIC50,BB65-RCC,< 5.59
same,pIC50,KARPAS-299,< 5.59
same,pIC50,NCI-H1650,< 5.59
same,pIC50,EKVX,< 5.59
same,pIC50,DJM-1,< 5.59
same,pIC50,HOS,< 5.59
same,pIC50,ES5,< 5.59
same,pIC50,HDLM-2,< 5.59
same,pIC50,A498,5.97
same,pIC50,697,< 5.59
same,pIC50,SF-539,< 5.59
same,pIC50,Ramos-2G6-4C10,< 5.59
same,pIC50,NCI-H1581,< 5.59
same,pIC50,MMAC-SF,< 5.59
same,pIC50,LB2518-MEL,< 5.59
same,pIC50,Becker,< 5.59
same,pIC50,MOLT-16,< 5.59
same,pIC50,HCC2218,< 5.59
same,pIC50,A4-Fuk,5.73
same,pIC50,SCC-3,< 5.59
same,pIC50,KG-1,< 5.59
same,pIC50,RCC10RGB,< 5.59
same,pIC50,SW-620,< 5.59
same,pIC50,D-502MG,< 5.59
same,pIC50,RPMI-8226,< 5.59
same,pIC50,HCC1187,< 5.59
same,pIC50,MeWo,< 5.59
same,pIC50,NB13,< 5.59
same,pIC50,SK-UT-1,5.87
same,pIC50,GI-1,< 5.59
same,pIC50,NCI-H1304,< 5.59
same,pIC50,LC-1F,< 5.59
same,pIC50,BV-173,< 5.59
